Assay results reported in patent publication US20250134907A1, “FUSED DIAZEPINES AS AGONISTS OF THE INSULIN-LIKE 3 (INSL3) PEPTIDE RECEPTOR RXFP2 AND METHODS OF USE THEREOF” (The United States of America,as represented by the …, priority 2022, published 2025).
pEC50: −log10 of the molar value.

Biological target: T1, RXFP2 (Homo sapiens, UniProt Q8WXD0)
T1 construct: expressed in transfected cells
Test: HTRF cAMP assay in HEK293T cells stably expressing RXFP2 (HEK-RXFP2)
Format: cell-based
Details: for % EFF vs. 1 nM INSL3 (a): maximum cAMP response normalized to 1 nM INSL3 response; for % EFF vs. 1 nM INSL3 (b): normalized to 1 nM INSL3 cAMP response; for % EFF vs. 100 nM INSL3 (c): normalized to 100 nM INSL3 cAMP response
Protocol: Compound efficacy and EC50 were determined by measuring cAMP induction in vitro. HEK293T cells stably expressing RXFP2 (HEK-RXFP2) produce cAMP when RXFP2 is activated, which can be measured in an antibody-based immunoassay utilizing a fluorescent readout (cAMP Gs HiRange Kit, PerkinElmer, Waltham, MA). HEK-RXFP2 cells were seeded in 96-well plates in serum-free DMEM and incubated overnight at 37° C., 5% CO2. Plates were then treated with a compound titration up to 25 μM or INSL3 control, in the presence of isobutylmethylxanthine phosphodiesterase inhibitor (IBMX) at 200 μM to amplify the cAMP signal, for 1 hour at 37° C., 5% CO2 before being processed as per kit instructions. Table 7 lists the efficacy and EC50 of compounds tested under different experimental conditions. […] In condition (a), 20,000 cells were seeded per well in the 96 well plate, and efficacy was determined by normalizing the maximum compound cAMP response to the 1 nM INSL3 cAMP response (% Efficacy 1 nM INSL3 (a)). In condition (b), 10,000 cells were seeded per well, and compound response was normalized to the 1 nM INSL3 cAMP response (% Efficacy 1 nM INSL3 (b)). In condition (c), 7,500 cells were seeded per well, compound response was normalized to the 100 nM INSL3 cAMP response, and IBMX was omitted (% Efficacy 100 nM INSL3 (c)). A range is given when compounds were tested multiple times. Where compounds were tested under multiple experimental conditions, the EC50 listed for the corresponding condition is marked (a) through (c) to correlate. When EC50 could not be calculated from the dose-response curve, EC50 is listed as not determined (ND).

[1] = condition (a): 20,000 cells/well, IBMX 200 μM
[2] = condition (b): 10,000 cells/well, IBMX 200 μM
[3] = condition (c): 7,500 cells/well, IBMX omitted

T1 sequence (Q8WXD0 whole entry): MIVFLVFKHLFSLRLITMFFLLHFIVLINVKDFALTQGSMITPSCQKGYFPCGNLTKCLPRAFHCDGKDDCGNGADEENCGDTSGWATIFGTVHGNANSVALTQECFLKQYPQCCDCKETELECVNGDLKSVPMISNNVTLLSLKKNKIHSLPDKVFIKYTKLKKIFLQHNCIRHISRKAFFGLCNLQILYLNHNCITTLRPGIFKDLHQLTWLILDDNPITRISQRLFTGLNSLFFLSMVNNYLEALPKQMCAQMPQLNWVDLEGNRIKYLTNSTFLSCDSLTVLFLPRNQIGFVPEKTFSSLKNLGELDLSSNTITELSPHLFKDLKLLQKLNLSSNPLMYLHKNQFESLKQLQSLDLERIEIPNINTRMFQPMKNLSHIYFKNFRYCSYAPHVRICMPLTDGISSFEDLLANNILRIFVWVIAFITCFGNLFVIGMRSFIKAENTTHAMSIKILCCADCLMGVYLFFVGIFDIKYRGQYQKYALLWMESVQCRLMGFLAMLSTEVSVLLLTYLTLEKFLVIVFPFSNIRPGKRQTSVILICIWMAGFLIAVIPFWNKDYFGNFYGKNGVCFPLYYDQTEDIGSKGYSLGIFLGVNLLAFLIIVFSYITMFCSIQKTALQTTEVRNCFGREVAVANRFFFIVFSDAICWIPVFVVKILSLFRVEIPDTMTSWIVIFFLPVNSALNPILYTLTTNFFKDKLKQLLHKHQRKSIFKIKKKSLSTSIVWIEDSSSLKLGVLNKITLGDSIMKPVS

Question: Which “% EFF vs. 1 nM INSL3 (a)” value [1] does the source give for `O=C1Nc2ccc(-c3ccc(C(F)(F)F)s3)cc2C(=O)N2CCN(C(=O)COc3ccccc3)CC12` (stereo not shown) [Example 107, 2-(2-phenoxyacetyl)-8-(5-(trifluoromethyl)thiophen-2-yl)-1,3,4,12a-tetrahydrobenzo[e]pyrazino[1,2-a][1,4]diazepine-6,12 (2H, 11H)-dione] here?
Answer: Its value is 27.96%.

Question: With `O=C1Nc2ccc(-c3cc(C(F)(F)F)ccc3F)cc2C(=O)N2CCN(C(=O)COc3ccc(C(F)(F)F)cc3Cl)C[C@@H]12` [Example 132, (S)-2-(2-(2-chloro-4-(trifluoromethyl)phenoxy)acetyl)-8-(2-fluoro-5-(trifluoromethyl)phenyl)-1,3,4,12a-tetrahydrobenzo[e]pyrazino[1,2-a][1,4]diazepine-6,12 (2H, 11H)-dione] as the compound, how does the “% EFF vs. 1 nM INSL3 (b)” value [2] read?
Answer: Its value is 68.09%.

Question: With `Cc1cc(OC(F)(F)F)ccc1OCC(=O)N1CCN2C(=O)c3cc(-c4ccnc(C(F)(F)F)c4)ccc3NC(=O)C2C1` (stereo not shown) [Example 40, 2-(2-(2-methyl-4-(trifluoromethoxy)phenoxy)acetyl)-8-(2-(trifluoromethyl)pyridin-4-yl)-1,3,4,12a-tetrahydrobenzo[e]pyrazino[1,2-a][1,4]diazepine-6,12 (2H, 11H)-dione] as the compound, how does the “% EFF vs. 1 nM INSL3 (b)” value [2] read?
Answer: Its value is 47.69%.

Question: Which results are given for `O=C1Nc2ccc(-c3cccc(C(F)(F)F)c3)cc2C(=O)N2CCN(C(=O)COc3ccc(C(F)(F)F)c(F)c3F)CC12` (stereo not shown) [Example 68, 2-(2-(2,3-difluoro-4-(trifluoromethyl)phenoxy)acetyl)-8-(3-(trifluoromethyl)phenyl)-1,3,4,12a-tetrahydrobenzo[e]pyrazino[1,2-a][1,4]diazepine-6,12 (2H, 11H)-dione]?
Answer: pEC50 [1]: 8.07; % EFF vs. 1 nM INSL3 (a) [1]: 33.99%

Question: What does the source list for `N#Cc1cc(-c2ccc3c(c2)C(=O)N2CCN(C(=O)COc4ccc(OC(F)(F)F)cc4Cl)CC2C(=O)N3)cc(C(F)(F)F)c1` (racemic) [Example 106, 3-(2-(2-(2-chloro-4-(trifluoromethoxy)phenoxy)acetyl)-6,12-dioxo-1,2,3,4,6,11,12,12a-octahydrobenzo[e]pyrazino[1,2-a]1[1,4]diazepin-8-yl)-5-(trifluoromethyl)benzonitrile]?
Answer: pEC50 [2]: 7.50; % EFF vs. 1 nM INSL3 (b) [2]: 50.30%

Question: How did the “% EFF vs. 100 nM INSL3 (c)” value [3] turn out when `O=C1Nc2ccc(-c3cccc(C(F)F)c3)cc2C(=O)N2CCN(C(=O)COc3ccc(OC(F)(F)F)cc3Cl)C[C@@H]12` [Example 179, (S)-2-(2-(2-chloro-4-(trifluoromethoxy)phenoxy)acetyl)-8-(3-(difluoromethyl)phenyl)-1,3,4,12a-tetrahydrobenzo[e]pyrazino[1,2-a][1,4]diazepine-6,12 (2H, 11H)-dione] was run?
Answer: Its value is 28.25%.

Question: How did the “% EFF vs. 1 nM INSL3 (a)” value [1] turn out when `O=C1Nc2ccc(-c3cccc(C(F)(F)F)c3)cc2C(=O)N2CCN(C(=O)COc3ccc(OC(F)(F)F)cc3Cl)C[C@H]12` [Example 118, (R)-2-(2-(2-chloro-4-(trifluoromethoxy)phenoxy)acetyl)-8-(3-(trifluoromethyl)phenyl)-1,3,4,12a-tetrahydrobenzo[e]pyrazino[1,2-a][1,4]diazepine-6,12 (2H, 11H)-dione] was run?
Answer: Its value is 43.71%.

Question: What does the source list for `O=C1Nc2ccc(-c3cc(C4CC4)cc(C(F)(F)F)c3)cc2C(=O)N2CCN(C(=O)COc3ccc(OC(F)(F)F)cc3I)C[C@@H]12` [Example 192, (S)-8-(3-cyclopropyl-5-(trifluoromethyl)phenyl)-2-(2-(2-iodo-4-(trifluoromethoxy)phenoxy)acetyl)-1,3,4,12a-tetrahydrobenzo[e]pyrazino[1,2-a][1,4]diazepine-6,12 (2H, 11H)-dione]?
Answer: pEC50 [3]: 7.11; % EFF vs. 100 nM INSL3 (c) [3]: 77.31%

Question: With `O=C1Nc2ccc(-c3cc(C(F)(F)F)ccc3F)cc2C(=O)N2CCN(C(=O)COc3ccc(OC(F)(F)F)cc3Cl)C[C@@H]12` [Example 127, (S)-2-(2-(2-chloro-4-(trifluoromethoxy)phenoxy)acetyl)-8-(2-fluoro-5-(trifluoromethyl)phenyl)-1,3,4,12a-tetrahydrobenzo[e]pyrazino[1,2-a][1,4]diazepine-6,12 (2H, 11H)-dione] as the compound, how does the pEC50 [2] read?
Answer: Its pEC50 is 7.92.

Question: And the “% EFF vs. 1 nM INSL3 (b)” value [2]?
Answer: Its value is 84.99%.

Question: For `Cc1cc(OC(F)(F)F)ccc1OCC(=O)N1CCN2C(=O)c3cc(-c4cncc(C(F)(F)F)c4)ccc3NC(=O)C2C1` (stereo not shown) [Example 41, 2-(2-(2-methyl-4-(trifluoromethoxy)phenoxy)acetyl)-8-(5-(trifluoromethyl)pyridin-3-yl)-1,3,4,12a-tetrahydrobenzo[e]pyrazino[1,2-a][1,4]diazepine-6,12 (2H, 11H)-dione], which “% EFF vs. 1 nM INSL3 (b)” value [2] is on record?
Answer: The value was 33.78%.

Question: What does the source list for `O=C1Nc2ccc(-c3cc(C(F)(F)F)ccc3F)cc2C(=O)N2CCN(C(=O)COc3ccc(OC(F)(F)F)cc3Cl)CC12` (racemic) [Example 104, 2-(2-(2-chloro-4-(trifluoromethoxy)phenoxy)acetyl)-8-(2-fluoro-5-(trifluoromethyl)phenyl)-1,3,4,12a-tetrahydrobenzo[e]pyrazino[1,2-a][1,4]diazepine-6,12 (2H, 11H)-dione]?
Answer: pEC50 [2]: 7.75; % EFF vs. 1 nM INSL3 (b) [2]: 67.7%

Question: For `Cc1cc(-c2ccc3c(c2)C(=O)N2CCN(C(=O)COc4ccc(OC(F)F)cc4C)C[C@H]2C(=O)N3)cc(C(F)(F)F)c1` [Example 168, (S)-2-(2-(4-(Difluoromethoxy)-2-methylphenoxy)acetyl)-8-(3-methyl-5-(trifluoromethyl)phenyl)-1,3,4,12a-tetrahydrobenzo[e]pyrazino[1,2-a][1,4]diazepine-6,12 (2H, 11H)-dione], which “% EFF vs. 1 nM INSL3 (b)” value [2] is on record?
Answer: The value was 131.20%.

Question: For `Cc1cc(OC(F)(F)F)ccc1OCC(=O)N1CCN2C(=O)c3cc(-c4cc(Cl)cc(C(F)(F)F)c4)ccc3NC(=O)[C@@H]2C1` [Example 164, (S)-8-(3-chloro-5-(trifluoromethyl)phenyl)-2-(2-(2-methyl-4-(trifluoromethoxy)phenoxy)acetyl)-1,3,4,12a-tetrahydrobenzo[e]pyrazino[1,2-a][1,4]diazepine-6,12 (2H, 11H)-dione], which “% EFF vs. 1 nM INSL3 (b)” value [2] is on record?
Answer: The value was 126.02%.

Question: `O=C1Nc2ccc(-c3cc(O)cc(C(F)(F)F)c3F)cc2C(=O)N2CCN(C(=O)COc3ccc(OC(F)(F)F)cc3Br)C[C@@H]12` [Example 259, (S)-2-(2-(2-bromo-4-(trifluoromethoxy)phenoxy)acetyl)-8-(2-fluoro-5-hydroxy-3-(trifluoromethyl)phenyl)-1,3,4,12a-tetrahydrobenzo[e]pyrazino[1,2-a][1,4]diazepine-6,12 (2H, 11H)-dione] was tested. Which pEC50 [3] did it give?
Answer: Its pEC50 is 7.21.

Question: What about the “% EFF vs. 100 nM INSL3 (c)” value [3] of the same compound?
Answer: The value was 67.97%.

Question: What does the source list for `O=C1Nc2ccc(-c3cccc(C(F)(F)F)c3)cc2C(=O)N2CCN(C(=O)COc3ccc(OC(F)(F)F)cc3F)CC12` (stereo not shown) [Example 101, 2-(2-(2-fluoro-4-(trifluoromethoxy)phenoxy)acetyl)-8-(3-(trifluoromethyl)phenyl)-1,3,4,12a-tetrahydrobenzo[e]pyrazino[1,2-a][1,4]diazepine-6,12 (2H, 11H)-dione]?
Answer: pEC50 [1]: 7.61; % EFF vs. 1 nM INSL3 (a) [1]: 35.5%

Question: What does the source list for `Cc1cc(OC(F)F)ccc1OCC(=O)N1CCN2C(=O)c3cc(-c4cc(C(F)(F)F)cc(C(F)(F)F)c4)ccc3NC(=O)[C@@H]2C1` [Example 167, (S)-2-(2-(4-(difluoromethoxy)-2-methylphenoxy)acetyl)-8-(3-(trifluoromethyl)-5-(trifluoromethyl)phenyl)-1,3,4,12a-tetrahydrobenzo[e]pyrazino[1,2-a][1,4]diazepine-6,12 (2H, 11H)-dione]?
Answer: pEC50 [2]: 6.85; % EFF vs. 1 nM INSL3 (b) [2]: 113.26%

Question: With `O=C1Nc2cnc(-c3cc(C(F)(F)F)cc(C(F)(F)F)c3)cc2C(=O)N2CCN(C(=O)COc3ccc(OC(F)(F)F)cc3I)C[C@@H]12` (single isomer, unassigned) [Example 196] as the compound, how does the pEC50 [3] read?
Answer: The pEC50 was 6.01.

Question: And the “% EFF vs. 100 nM INSL3 (c)” value [3]?
Answer: Its value is 109.23%.

Question: Which “% EFF vs. 100 nM INSL3 (c)” value [3] does the source give for `O=C1Nc2cnc(-c3cc(C(F)(F)F)cc(C(F)(F)F)c3)cc2C(=O)N2CCN(C(=O)COc3ccc(OC(F)(F)F)cc3Br)C[C@@H]12` (single isomer, unassigned) [Example 197] here?
Answer: Its value is 104.06%.

Question: With `Cc1cc(OC(F)F)ccc1OCC(=O)N1CCN2C(=O)c3cc(-c4cccc(C(F)F)c4)ccc3NC(=O)[C@@H]2C1` [Example 177, (S)-2-(2-(4-(difluoromethoxy)-2-methylphenoxy)acetyl)-8-(3-(difluoromethyl)phenyl)-1,3,4,12a-tetrahydrobenzo[e]pyrazino[1,2-a][1,4]diazepine-6,12 (2H, 11H)-dione] as the compound, how does the “% EFF vs. 100 nM INSL3 (c)” value [3] read?
Answer: Its value is 17.49%.
